According to BindingDB's records for doi:10.1021/acsmedchemlett.6b00363 (Philipps University Marburg, 2017):

Key:
[1] = molecular target: Beta-1 adrenergic receptor (Homo sapiens, UniProt P08588); experiment: Displacement of [3H](-)CGP12177 from human beta1-AR expressed in CHOK1 cells after 2 hrs by TopCount microscintillation counting method
[2] = molecular target: Beta-2 adrenergic receptor (Homo sapiens, UniProt P07550); experiment: Displacement of [3H](-)CGP12177 from human beta2-AR expressed in CHOK1 cells after 2 hrs by TopCount microscintillation counting method
Beta-2 adrenergic receptor, sequence (P07550 whole entry): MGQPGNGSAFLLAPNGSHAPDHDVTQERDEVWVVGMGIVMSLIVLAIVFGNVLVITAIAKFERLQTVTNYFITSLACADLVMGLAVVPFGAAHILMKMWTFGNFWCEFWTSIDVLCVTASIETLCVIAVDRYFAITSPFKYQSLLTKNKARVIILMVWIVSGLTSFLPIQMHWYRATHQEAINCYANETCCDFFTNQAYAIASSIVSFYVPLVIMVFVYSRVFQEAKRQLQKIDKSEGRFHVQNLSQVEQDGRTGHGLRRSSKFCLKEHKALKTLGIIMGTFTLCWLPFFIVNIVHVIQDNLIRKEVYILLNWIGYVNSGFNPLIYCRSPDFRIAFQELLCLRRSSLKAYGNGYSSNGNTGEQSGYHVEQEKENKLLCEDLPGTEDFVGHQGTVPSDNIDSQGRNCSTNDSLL

Beta-1 adrenergic receptor, sequence (P08588 whole entry): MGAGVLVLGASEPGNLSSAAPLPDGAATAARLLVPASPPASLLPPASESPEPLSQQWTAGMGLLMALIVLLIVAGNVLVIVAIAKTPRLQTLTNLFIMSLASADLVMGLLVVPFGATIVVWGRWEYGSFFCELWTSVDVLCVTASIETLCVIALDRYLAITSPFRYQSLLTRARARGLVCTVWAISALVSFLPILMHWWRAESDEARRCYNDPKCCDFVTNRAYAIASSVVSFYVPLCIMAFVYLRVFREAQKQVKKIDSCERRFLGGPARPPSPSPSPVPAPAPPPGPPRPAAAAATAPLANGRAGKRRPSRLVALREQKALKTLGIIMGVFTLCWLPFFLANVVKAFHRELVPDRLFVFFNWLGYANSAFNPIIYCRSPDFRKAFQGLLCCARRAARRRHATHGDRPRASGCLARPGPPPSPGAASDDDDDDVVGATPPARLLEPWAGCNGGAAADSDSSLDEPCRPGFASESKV

| SMILES | Kd [1] [µM] | Kd [2] [µM] |
| --- | --- | --- |
| C[n+]1c(/C=C/Nc2ccccc2)sc2ccccc21 | 257 | – |
| CCCCN(C)Cc1c(O)cc(C)c2c1O/C(=C\c1cc3cc(Br)ccc3o1)C2=O | – | 17.8 |
| CN(C)CCOc1ccc2ccccc2c1C=O | 97.7 | – |

The next lines start with the values.

| Kd [1] [µM] | Kd [2] [µM] | SMILES |
| --- | --- | --- |
| 38 | 14.5 | Cc1cc(O)c(CN2CCCC2)c2c1C(=O)/C(=C/c1cc3ccccc3o1)O2 |
| 46.8 | 25.1 | Cc1cc(O)c(CN(C)C)c2c1C(=O)/C(=C/c1ccccc1)O2 |
